Results: US11083717B2, “Compositions and methods for drug sensitization of parasites” (The Texas A&M University System, priority 2015, dated 2021)
Read-outs that look alike come from different tables or passages of the source.

What was measured:
S. cerevisiae = assay: in vitro; settings: Saccharomyces cerevisiae
Excerpt: (§1) These tests included an IL-12 mouse model test to determine compound efficacy, verification of MIC50 for CP, cytotoxicity test for fibroblasts and yeast to determine potential toxic effects, a Human ether-a-go-go-related gene (hERG) test to determine potential cardiotoxicity, an AMES test tp determine mutagenic potential, a Safety Screen 44 test to determine common negative off-target drug interastion (Eurofins Cerep, SA, France), a cytochrome P450 (CYP) test to determine potential liver toxicity, a maximum tolerated dose, test, a Pharmacokinetics (PK) test to determine fate of the substance administered to a living organism tests for plasma stability in human and mouse, to measure the degradation of compound in plasma MClint and HClint test to determine in vitro intrinsic clearance for Mouse and Human, and kinetic solubility and plasma protein binding tests in mouse and human.

human fibroblast = assay: in vitro
Excerpt: as §1

| Structure (SMILES) | concentrations at which not toxic, S. cerevisiae cytotoxicity testing (S. cerevisiae) [µM] | concentrations at which not toxic, human fibroblast cytotoxicity testing (human fibroblast; human) [µM] | concentrations at which not toxic, human fibroblast cytotoxicity testing (human fibroblast) [µM] |
| --- | --- | --- | --- |
| CC(C)NC(=O)Nc1ccc(Oc2nc3ccc(Cl)cc3s2)c[n+]1[O-] [NZ-391, 1-{5-[(6-chloro-1,3-benzothiazol-2-yl)oxy]-1-oxo-1λ^5-pyridin-2-yl}-3-(propan-2-yl)urea] | ≥ 100 | ≥ 100 |  |
| CNC(=O)Cc1ccc(Oc2nc3ccc(Cl)cc3s2)cc1OC [NZ-392, 2-{4-[(6-chloro-1,3-benzothiazol-2-yl)oxy]-2-methoxyphenyl}-N-methylacetamide] | ≥ 100 |  | ≥ 100 |
| CC(C)NC(=O)Nc1ccc(Oc2nc3cc(Cl)c(Cl)cc3s2)cc1 [NZ-393, 1-{4-[(5,6-dichloro-1,3-benzothiazol-2-yl)oxy]phenyl}-3-(propan-2-yl)urea] | ≥ 100 |  | ≥ 100 |
| CNC(=O)C(C)c1ccc(Oc2nc3cc(Cl)c(Cl)cc3s2)cc1 (stereo not drawn) [NZ-394, 2-{4-[(5,6-dichloro-1,3-benzothiazol-2-yl)oxy]phenyl}-N-methylpropanamide] | ≥ 100 | ≥ 100 |  |
| COC(=O)Cn1ccc(Oc2nc3ccc(Cl)cc3s2)cc1=O [NZ-396, methyl 2-{4-[(6-chloro-1,3-benzothiazol-2-yl)oxy]-2-oxo-1,2-dihydropyridin-1-yl}acetate] | ≥ 100 | ≥ 100 |  |
| O=C(O)Cn1ccc(Oc2nc3ccc(Cl)cc3s2)cc1=O [NZ-397, 2-{4-[(6-chloro-1,3-benzothiazol-2-yl)oxy]-2-oxo-1,2-dihydropyridin-1-yl}acetic acid] | ≥ 100 |  | ≥ 100 |
| O=C(O)Cc1ccc(Oc2nc3cc(F)c(F)cc3s2)cc1 [NZ-399, 2-{4-[(5,6-difluoro-1,3-benzothiazol-2-yl)oxy]phenyl}acetic acid] | ≥ 100 |  | ≥ 100 |
| CNC(=O)Cc1ccc(Oc2cnc3cc(Cl)ccc3n2)cc1O [NZ-402, 2-{4-[(6-chloroquinoxalin-2-yl)oxy]-2-hydroxyphenyl}-N-methylacetamide] | ≥ 100 |  | ≥ 100 |
| CC(C)NC(=O)Cn1ccc(Oc2nc3ccc(Cl)cc3s2)cc1=O [NZ-404, 2-{4-[(6-chloro-1,3-benzothiazol-2-yl)oxy]-2-oxo-1,2-dihydropyridin-1-yl}-N-(propan-2-yl)acetamide] | ≥ 100 | ≥ 100 |  |
| CC(C)NC(=O)Cc1ccc(O)cc1Oc1nc2ccc(F)cc2s1 [NZ-406, 2-{2-[(6-fluoro-1,3-benzothiazol-2-yl)oxy]-4-hydroxyphenyl}-N-(propan-2-yl)acetamide] | ≥ 100 | ≥ 100 |  |
| CC(C)NC(=O)Cc1ccc(Oc2nc3cc(F)c(F)cc3s2)cc1O [NZ-407, 2-{4-[(5,6-difluoro-1,3-benzothiazol-2-yl)oxy]-2-hydroxyphenyl}-N-(propan-2-yl)acetamide] | ≥ 100 | ≥ 100 |  |
| CNC(=O)C(C)c1ccc(Oc2nc3ccc(F)cc3s2)cc1O (stereo not drawn) [NZ-408, 2-{4-[(6-fluoro-1,3-benzothiazol-2-yl)oxy]-2-hydroxyphenyl}-N-methylpropanamide] | ≥ 100 | ≥ 100 |  |
| CC(C)(C)OC(=O)Nc1ccc(Oc2nc3ccc(F)cc3s2)cc1 [NZ-412, tert-butyl N-{4-[(6-fluoro-1,3-benzothiazol-2-yl)oxy]phenyl}carbamate] | ≥ 100 | ≥ 100 |  |
| Nc1ccc(Oc2nc3ccc(F)cc3s2)cc1 [NZ-413, 4-[(6-fluoro-1,3-benzothiazol-2-yl)oxy]aniline] | ≥ 100 | ≥ 100 |  |
| CC(C)(C)OC(=O)NCCC(=O)Nc1ccc(Oc2nc3ccc(F)cc3s2)cc1 [NZ-414, tert-butyl N-[2-({4-[(6-fluoro-1,3-benzothiazol-2-yl)oxy]phenyl}carbamoyl)ethyl]carbamate] | ≥ 100 | ≥ 100 |  |
| CC(C)(C)OC(=O)NCC(=O)Nc1ccc(Oc2nc3ccc(F)cc3s2)cc1 [NZ-415, tert-butyl N-[({4-[(6-fluoro-1,3-benzothiazol-2-yl)oxy]phenyl}carbamoyl)methyl]carbamate] | ≥ 100 | ≥ 100 |  |
| NCCC(=O)Nc1ccc(Oc2nc3ccc(F)cc3s2)cc1 [NZ-416, 3-amino-N-{4-[(6-fluoro-1,3-benzothiazol-2-yl)oxy]phenyl}propanamide] | ≥ 100 | ≥ 100 |  |
| O=C(O)Cn1ccc(Oc2nc3ccc(F)cc3s2)cc1=O [NZ-418, 2-{4-[(6-fluoro-1,3-benzothiazol-2-yl)oxy]-2-oxo-1,2-dihydropyridin-1-yl}acetic acid] | ≥ 100 | ≥ 100 |  |
| CNC(=O)Cn1ccc(Oc2nc3ccc(F)cc3s2)cc1=O [NZ-419, 2-{4-[(6-fluoro-1,3-benzothiazol-2-yl)oxy]-2-oxo-1,2-dihydropyridin-1-yl}-N-methylacetamide] | ≥ 100 | ≥ 100 |  |
| CC(=O)Nc1ccc(Oc2nc3ccc(F)cc3s2)cc1 [NZ-420, N-{4-[(6-fluoro-1,3-benzothiazol-2-yl)oxy]phenyl}acetamide] | ≥ 100 | ≥ 100 |  |
| O=C(O)Cc1c(F)cc(Oc2nc3ccc(Cl)cc3s2)cc1F [NZ-458, 2-{4-[(6-chloro-1,3-benzothiazol-2-yl)oxy]-2,6-difluorophenyl}acetic acid] | ≥ 100 | ≥ 100 |  |
| O=C(Nc1ccc(Oc2nc3ccc(Cl)cc3s2)cc1)N1CCNCC1 [NZ-509, N-{4-[(6-chloro-1,3-benzothiazol-2-yl)oxy]phenyl}piperazine-1-carboxamide] | ≥ 100 | ≥ 100 |  |
| CC(C(=O)N1CCN(C(C)C)CC1)c1ccc(Oc2nc3ccc(Cl)cc3s2)cc1 (stereo not drawn) [NZ-510, 2-{4-[(6-chloro-1,3-benzothiazol-2-yl)oxy]phenyl}-1-[4-(propan-2-yl]piperazin-1-yl]propan-1-one] | ≥ 100 | ≥ 100 |  |
| CC(C(=O)N1CCN(C2CC2)CC1)c1ccc(Oc2nc3ccc(Cl)cc3s2)cc1 (stereo not drawn) [NZ-511, 2-{4-[(6-chloro-1,3-benzothiazol-2-yl)oxy]phenyl}-1-(4-cyclopropylpiperazin-1-yl)propan-1-one] | ≥ 100 | ≥ 100 |  |
| CC(C(=O)N1CCN(CC(F)(F)F)CC1)c1ccc(Oc2nc3ccc(Cl)cc3s2)cc1 (stereo not drawn) [NZ-512] | ≥ 100 | ≥ 100 |  |
| CC(C(=O)N1CCN(C2COC2)CC1)c1ccc(Oc2nc3ccc(Cl)cc3s2)cc1 (stereo not drawn) [NZ-513, 2-{4-[(6-chloro-1,3-benzothiazol-2-yl)oxy]phenyl}-1-[4-(oxetan-3-yl)piperazin-1-yl]propan-1-one] | ≥ 100 | ≥ 100 |  |
| CC(C(=O)NCC(O)CO)c1ccc(Oc2cnc3cc(Cl)ccc3n2)cc1 (stereo not drawn) [NZ-534, 2-{4-[(6-chloroquinoxalin-2-yl)oxy]phenyl}-N-(2,3-dihydroxypropyl)propanamide] | ≥ 100 | ≥ 100 |  |
